# Reference: patent publication US12364733B1, “Method for treating septic shock” (Inotrem, priority 2018, dated 2025)
# Columns and labels:
# Type in all cases: in vivo, human
# [1] = Blood nangibotide concentrations by LC-MS/MS (pharmacokinetics, phase IIa trial)
# Procedure: Blood nangibotide concentrations were determined by a validated LC-MS/MS method in accordance with European Medicines Agency (EMA) guidelines on bioanalytical method validation EMEA/CHMP/EWP/192217/2009, version EMA/275542/2014. The peptide was stabilized in the blood samples by treatment with a 10% trichloroacetic acid solution ([…], 4° C.) and centrifugation (3500 g, 10 min, 4° C.) to collect and freeze the supernatant before analysis. The lower limit of quantification (LLOQ) and upper limit of quantification (ULOQ) were 5 ng/mL and 1000 ng/mL respectively. Standard curve was linear over the range 5 ng/mL to 1000 ng/mL with a correlation coefficient greater than 0.995. Within-run and between-run precision and accuracy within +/−20% LLOQ and +/−15% (other levels up to ULOQ) were achieved during a 3-run validation for quality controls (QCs) for nangibotide.
# [2] = test system: septic shock patients; test: Phase IIa clinical trial with nangibotide: days alive and free from vasopressor, IMV or CRRT; conditions: for difference in the number of CRRT (continuous renal replacement therapy) free days alive vs. placebo / difference in the number of IMV (invasive mechanical ventilation) free days alive vs. placebo / difference in the number of vasopressor free days alive vs. placebo: day 0 to day 28
# Procedure: This was a randomized, double-blind, two-stage, placebo-controlled study. As described in FIG. 7, the study was composed of 2 stages with a similar treatment regimen, in which 0.3, 1.0 or 3.0 mg/kg/h of nangibotide (corresponding to peptide LR12, having an amino acid sequence as set forth in SEQ ID NO: 9, also known as motrem) was tested versus placebo. All patients with a diagnosis of septic shock were considered for study participation. All potential study patients underwent standard care management procedures. Patients with evidence of septic shock according to the Sepsis-3 definition (Singer et al, JAMA 2016) were considered for inclusion (i.e., patients suffering from sepsis and having (i) persisting hypotension requiring vasopressors to maintain their mean arterial pressure ≥65 mm Hg and (ii) a serum lactate level >2 mmol/L (18 mg/dL) despite adequate volume resuscitation).
# After screening for eligibility, patients were randomized to one of the treatment arms. Then, they received either a 5 mg/kg loading dose of nangibotide over 15 minutes followed by a continuous intravenous (i.v.) infusion of nangibotide or a matching placebo on top of standard of care. Treatment with study drug was initiated as early as possible, but no later than 24 hours after the onset of septic shock, defined by the start of vasopressor therapy. Patients were treated until 12 (±2) hours after the resolution of their septic shock (defined as vasopressor withdrawal) with a maximum treatment duration of 5 days (120 hours).
# (§1) Adverse events (AEs) were coded using the MedDRA dictionary version 18.1. Treatment-emergent adverse events (TEAEs) were summarized and listed. Analysis was performed in 49 septic shock patients. The demographic and baseline characteristics were summarized in a descriptive fashion within each population: categorical variables were summarized by contingency tables (frequencies and percentages). sTREM-1 levels at day 1 were also described (mean, standard deviation, standard error, median, quartiles and range, minimum and maximum values). Mortality rates were reported by frequency and percentage. For continuous endpoints, i.e., the sequential organ failure assessment (SOFA), missing data were imputed using LOCF (Last Observation Carry-Forward). For time-to-event analyses, i.e., duration of invasive mechanical ventilation (IMV), duration of continuous renal replacement therapy (CRRT), survival, censored data techniques were utilized. In addition, a sensitivity analysis of time to event data (except survival) was performed using censoring at maximum limit for the corresponding observation period (i.e., either day 28 or day 90). […] The following comparisons were made: each nangibotide dose arm to placebo, all nangibotide doses combined versus placebo, and dose-response using an ordinal trend test. Exploratory composite endpoint: incidence (number and proportion) of patients alive at day 28 and free of vasopressor, free of IMV and free of CRRT were summarized by treatment and compared between treatments with a Fisher's exact test. For pharmacodynamic markers, log transformed data were represented as percentage change from baseline at day 5 or End of Infusion (EOI) if end of infusion was stopped before day 5. […] “All nangibotide” refers to analyses obtained by pooling data from 0.3, 1 and 3 mg/kg/h nangibotide-treated groups.
# [3] = test system: circulating levels of endothelial injury markers, inflammatory markers and sTREM-1; test: Phase IIa clinical trial with nangibotide: pharmacodynamic markers
# Procedure: The quantitative determination of sTREM-1 was carried out using the method described in Example 2.
# as §1
# [4] = baseline high sTREM-1 subgroup, 0.3 mg/kg/h
# [5] = baseline high sTREM-1 subgroup, 3 mg/kg/h
# [6] = baseline high sTREM-1 subgroup, all nangibotide
# [7] = baseline low sTREM-1 subgroup, 0.3 mg/kg/h
# [8] = baseline low sTREM-1 subgroup, 3 mg/kg/h
# [9] = baseline low sTREM-1 subgroup, all nangibotide
# [10] = whole population, all nangibotide
substance,measurement,setting,value
nangibotide (LQEEDAGEYGCM; TLT-1 peptide),nangibotide blood concentration versus dose,"[1]; 0.3, 1.0, 3.0 mg/kg/h",proportional with the dose
same,clearance after the end of infusion,"[1]; human, in vivo",quickly cleared
same,pharmacokinetics / blood concentrations compared with healthy volunteers,[1]; in vivo,within the same range previously observed in healthy volunteers
same,pharmacokinetic behavior during intravenous infusion,"[1]; in vivo, iv",linear behavior
same,proportion of patients alive and free of any medical support at day 28,"[2]; all nangibotide group, patients with high circulating sTREM-1 at baseline (above 433 pg/mL), placebo 40%",70%
same,difference in the number of CRRT (continuous renal replacement therapy) free days alive vs. placebo,[2]; [4],8.67 days
same,difference in the number of IMV (invasive mechanical ventilation) free days alive vs. placebo,[2]; [4],2.63 days
same,difference in the number of vasopressor free days alive vs. placebo,[2]; [4],4.07 days
same,difference in the number of CRRT (continuous renal replacement therapy) free days alive vs. placebo,[2]; [5],7.37 days
same,difference in the number of IMV (invasive mechanical ventilation) free days alive vs. placebo,[2]; [5],4.30 days
same,difference in the number of vasopressor free days alive vs. placebo,[2]; [5],-0.48 days
same,difference in the number of CRRT (continuous renal replacement therapy) free days alive vs. placebo,[2]; [6],7.85 days
same,difference in the number of IMV (invasive mechanical ventilation) free days alive vs. placebo,[2]; [6],5.63 days
same,difference in the number of vasopressor free days alive vs. placebo,[2]; [6],2.94 days
same,difference in the number of CRRT (continuous renal replacement therapy) free days alive vs. placebo,[2]; [7],1.43 days
same,difference in the number of IMV (invasive mechanical ventilation) free days alive vs. placebo,[2]; [7],3 days
same,difference in the number of vasopressor free days alive vs. placebo,[2]; [7],2.29 days
same,difference in the number of CRRT (continuous renal replacement therapy) free days alive vs. placebo,[2]; [8],0.89 days
same,difference in the number of IMV (invasive mechanical ventilation) free days alive vs. placebo,[2]; [8],-6.32 days
same,difference in the number of vasopressor free days alive vs. placebo,[2]; [8],0.07 days
same,difference in the number of CRRT (continuous renal replacement therapy) free days alive vs. placebo,[2]; [9],0.77 days
same,difference in the number of IMV (invasive mechanical ventilation) free days alive vs. placebo,[2]; [9],-1.30 days
same,difference in the number of vasopressor free days alive vs. placebo,[2]; [9],0.64 days
same,"vasopressor use, invasive mechanical ventilation (IMV) use and renal replacement therapy (RRT) use vs. placebo",[2]; no statistically significant differences,consistent numerical trend in favor of nangibotide
same,difference in the number of CRRT (continuous renal replacement therapy) free days alive vs. placebo,"[2]; whole population, 0.3 mg/kg/h",4.10 days
same,difference in the number of IMV (invasive mechanical ventilation) free days alive vs. placebo,"[2]; whole population, 0.3 mg/kg/h",2.32 days
same,difference in the number of CRRT (continuous renal replacement therapy) free days alive vs. placebo,"[2]; whole population, 3 mg/kg/h",1.50 days
same,difference in the number of IMV (invasive mechanical ventilation) free days alive vs. placebo,"[2]; whole population, 3 mg/kg/h",-2.08 days
same,difference in the number of CRRT (continuous renal replacement therapy) free days alive vs. placebo,[2]; [10],2.70 days
same,difference in the number of IMV (invasive mechanical ventilation) free days alive vs. placebo,[2]; [10],1.33 days
same,"Ang-2 level, change from baseline",[3]; G2 subgroup (baseline sTREM-1 above the median 433 pg/mL) vs whole population and G1,trend toward a more pronounced decrease
same,"IL-6 level, change from baseline",[3]; G2 subgroup vs whole population and G1,the same trend was observed
same,"circulating levels of endothelial injury markers (Ang-2, VCAM-1, VGEFR-1 and E-selectin), inflammatory markers (IL-8, IL-10, MCP-1, TNF-α and IL-10) and sTREM-1","[3]; during the treatment, nangibotide-treated patients",trend towards a decrease
same,sTREM-1 kinetics over time,[3]; subgroup of patients with high baseline sTREM-1 values,trend towards a decrease in sTREM-1
same,"Ang-2 level, treatment effect",[3]; whole population,no apparent treatment effect
same,sTREM-1 kinetics over time,"[3]; whole population, day 5/EOI from baseline",no apparent changes over time
